Literature values, collected in article PMC5061580 (Journal of biomolecular structure & dynamics, 2016).

What was measured:
[1] = test system: Madin-Darby canine kidney cells (MDCK); settings: in vitro cell culture monolayers; ref Makagiansar et al., 2001
blood-brain barrier = settings: in-situ rat brain perfusion; ref Kiptoo et al., 2011; On et al., 2014

Ac-SHAVSS-NH2 [HAV6]
delivery of 14C-mannitol across MDCK monolayers [1]: enhances
brain delivery of 14C-mannitol and 3H-daunomycin (blood-brain barrier): increase the brain delivery
